# Results: US9365532B1, “Synthesis, composition and use of novel therapeutic and cosmetic Schiff base products formed by reaction of a carbonyl containing moeity with a transimination nucleophilic catalyst and the use of transimination nucleophilic catalysts to increase the rate at which carbonyl containing therapeutic and …” (Nanometics, LLC., priority 2011, dated 2016)
# Entries after “also recorded” stand apart in the source; their conditions may differ.
# Columns and labels:
# [1] = system: human skin; experiment: Melanoidin formation in vivo on human skin; details: low concentrations of transimination nucleophilic catalyst
# Description: The application areas were allowed to dry for 5 min and were monitored for 14 days, with photographs taken throughout. The subjects were asked not to bathe for the first 24 h. […] Significant differences in the appearance of the application areas were noticeable during the study, and no adverse reactions of any kind were observed. […] The preliminary results of these experiments are promising, and we plan to expand the study to incorporate a larger, statistically significant panel during phase II SBIR studies.
# [2] = target: T1, HbA (Homo sapiens, UniProt P69905); experiment: 5HMF/HbA Schiff base adduct formation with purified HbA, cation-exchange HPLC; type: binding; details: for percent Hb adduct (5HMF/HbA): 30 min at room temperature, HbA 1 mg/ml PBS 7.4
# T1 construct: purified HbA (1 mg/ml), from an anonymous human donor; from tissue; host or cells: blood of an anonymous human donor (purified HbA)
# T1 sequence (P69905 2-142 limits assumed): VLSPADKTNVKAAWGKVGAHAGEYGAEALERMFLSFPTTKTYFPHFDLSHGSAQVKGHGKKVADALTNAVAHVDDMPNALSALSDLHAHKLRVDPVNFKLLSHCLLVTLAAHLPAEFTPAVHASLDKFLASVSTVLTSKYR
# T1 sequence (P68871 2-147 partner limits assumed): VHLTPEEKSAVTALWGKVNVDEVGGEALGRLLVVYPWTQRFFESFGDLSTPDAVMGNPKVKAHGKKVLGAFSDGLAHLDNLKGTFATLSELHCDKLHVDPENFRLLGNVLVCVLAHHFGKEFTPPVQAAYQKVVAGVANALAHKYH
# Description: The isolated imine of Example 1, formed by reacting p-aminobenzoic acid and 5-hydroxymethyl furfural, reacts with hemoglobin at faster rates than 5HMF. The therapeutic imine was synthesized according to Example 1. To a solution of purified HbA (1 mg/ml), from an anonymous human donor, in PBS 7.4 was added equivalent amounts of the therapeutic imine of AIC (1 mM), or 5HMF (1 mM). The HbA solutions show a new peak (˜7.1 min) on cation-exchange HPLC (Table 2) that elutes prior to the unmodified HbA peak (˜8.2 min). The new peak represents the […] formed between 5HMF and HbA and can be quantified by integration of the representative peaks. […] The initial rate of Schiff base adduct formation between the therapeutic imine and HbA is nearly 10 times faster than the rate of formation between 5HMF and HbA, as determined by cation-exchange HPLC at room temperature.
# [3] = Stability to air, light and moisture (controlled humidity chamber); type: physicochemical; details: 500 mg, light, 22° C., 2 wks
# Description: The commercial-scale production, distribution and stability of 5HMF, a hygroscopic off-white solid, may be costly as the compound is highly susceptible to degradation upon exposure to air, light and moisture (21). […] To quantify the differences in stability, 500 mg of AIC or 5HMF were placed in a controlled humidity chamber and exposed to light at 22° C. for a period of 2 wks.
# [4] = target: T2, HbS (Homo sapiens, UniProt P69905); experiment: Ex vivo 5HMF/HbS adduct formation in whole blood, AIC vs 5HMF; type: cell-based, BERKγM mouse; details: for 5HMF/HbS adduct formed: 30 min at 37° C.
# T2 construct: To aliquots of whole blood (100 μL), from the BERKγM mouse; from tissue; host or cells: red cells in whole blood of BERKγM / BERK M transgenic sickle mice (ex vivo incubation, or in vivo after i.v. injection)
# Target sequence in this assay (P69905 2-142 limits assumed): as the sequence (P69905 2-142 limits assumed) above
# [5] = target: T2, HbS; experiment: Ex vivo 5HMF/HbS adduct formation in whole blood, PABA/5HMF mixtures; type: cell-based, BERKγM transgenic mouse; details: for 5HMF/HbS adduct formed: whole blood
# Description: Studies were initiated to explore the impact of mixing equimolar concentrations of PABA and 5HMF on the rate of 5HMF/HbS adduct formation in whole blood from a BERKγM transgenic mouse. To aliquots of whole blood (100 μL) was added either 5HMF (2 mM or 5 mM), the sodium salt of PABA (2 mM or 5 mM), or equimolar concentrations of PABA/5HMF (2 mM or 5 mM). […] The rate enhancements are not optimized in these experiments, and additional experiments to account for the differences in rates of transport across the RBC membrane will be performed during Phase II SBIR studies.
# Target sequence in this assay (P69905 2-142): as the sequence (P69905 2-142 limits assumed) above
# [6] = Behaviour and toxicity after intravenous injection
# [7] = target: hemoglobin (Homo sapiens, UniProt P69905); experiment: Oxygen equilibrium curves of hemoglobin solutions (Hemox Analyzer); type: biochemical; details: for n50 (hill coefficient) / ΔP50 (%) / P50: no PABA
# Chain of hemoglobin (P69905 2-142 limits assumed): as above
# Chain of hemoglobin (P68871 2-147 partner limits assumed): as the sequence (P68871 2-147 partner limits assumed) above
# Description: The oxygen equilibrium curves (OEC) of hemoglobin (1 mg/ml) in phosphate buffer saline pH 7.4 containing 100 mM, 10 mM or 1 mM of the sodium salt of p-aminobenzoate (Sigma) were determined with a Hemox Analyzer (TCS Scientific Corp.). Hemoglobin solutions were incubated at 37° C. for 1 h, in the presence (+) or absence (−) of each compound, as specified in Table 1.
# [8] = system: sickle cells; details: in vitro, high concentrations of 5HMF; cited from earlier work
# [9] = target: T2, HbS; experiment: In vivo 5HMF/HbS adduct formation after intravenous injection; set-up: species or system BERK M mice; details: 200 mg/kg each
# Description: BERK M mice were injected (intravenous) with solutions containing either 5HMF (200 mg/kg) or 5HMF (200 mg/kg) and the sodium salt of PABA (200 mg/kg). […] To assess of 5HMF/HbS adduct formation, aliquots of blood were taken at 10 and 30 min, and immediately washed, lysed and subjected to HPLC as previously described.
# Target sequence in this assay (P69905 2-142): as the sequence (P69905 2-142 limits assumed) above
# [10] = mouse, in vivo; cited from earlier work
# [11] = system: T-cell surface amines; experiment: Competitive covalent ligation assay, Tucaresol/T-cell adduct formation (flow cytometry); type: cell-based, Balb/c male mice; details: 500 μM Tucaresol and/or 1 mM PABA, 30 min, 37° C.
# Description: The central hypothesis of our approach involves utilizing PABA to increase the rate of Schiff base formation between Tucaresol and T-cells in order to minimize the concentration of Tucaresol required for efficacy. We used an established competitive covalent ligation assay (2) to examine the influence of PABA on the rate and degree of Schiff base-adduct formation between Tucaresol and T-cells isolated from the spleens of Balb/c male mice. In this assay, the degree of Tucaresol/T-cell adduct formation is inversely proportional to the mean fluorescence intensity (as visualized by ligation with S-NHS-biotin and FITC-avidin). T-cells were incubated for 30 min with 500 μM Tucaresol only (blue column, FIG. 5), 1 mM PABA only (orange column, FIG. 5) or a mixture of 500 μM Tucaresol and 1 mM PABA (red column, FIG. 5) at 37° C. After 30 min, the reducing agent NaCNBH3 was added to selectively reduce Schiff base adducts (chemically trapping the Tucaresol/T-cell adduct). Washed cells were exposed for 1 h to 12.5 μM S-NHS-biotin (Pierce Rockford, Ill.) to ligate unreacted free surface amino groups. After washing, cells were exposed to excess fluorescent avidin (FITC-avidin) (Pierce), fixed and visualized using flow cytometry.
# [12] = Melanoidin formation in vitro in glycine/DHA solutions; details: glycine (6%) and DHA (6%), 32° C.
# Description: Solutions of glycine (6%) and DHA (6%) in 100 mM NH4OAc buffer pH 5.5 were incubated in the presence (+) and absence (−) of the sodium salt of PABA (1%) at 32° C.
# [13] = humans; cited from earlier work
# [14] = system: HIV-positive patients; details: cited from earlier work
smiles,measurement,setting,value
CCC=CCCOC(=O)c1ccccc1N [3-hexen-1-yl anthranilate],rate at which melanoidin formation occurs on human skin,[1],significantly increase the rate
"O=C(O)c1ccc(/N=C/c2ccc(CO)o2)cc1 [AIC, 4-((5-(hydroxymethyl)furan-2-yl)methyleneamino)benzoic acid]",rate of 5HMF/HbA adduct formation vs 5HMF (in words),[2]; 1 mM AIC or 1 mM 5HMF,significantly enhanced rates
same,percent Hb adduct (5HMF/HbA),[2]; 1 mM,~32%
same,initial rate of Schiff base adduct formation with HbA relative to 5HMF,"[2]; 1 mM, room temperature",~10 times
same,chemical change by 1HNMR spectra and HPLC chromatogram on storage,[3],no changes
same,color change on storage,[3],did not exhibit a noticeable color change
same,5HMF/HbS adduct formed,"[4]; 5 mM, whole blood",50%
same,rate of 5HMF/HbS adduct formation vs 5HMF (in words),"[4]; 5 mM, whole blood, initial rate measured after 10 min",significantly faster; also recorded: significantly enhanced rates
same,erythrocyte membrane permeation,"[4]; whole blood, 5 mM",permeates the erythrocyte membrane
"O=Cc1ccc(CO)o1 [Example 5HMF, 5-hydroxymethyl-2-furfural]",5HMF/HbS adduct formed,"[5]; 2 mM (equimolar for mixture), 37° C.",23%
same,5HMF/HbS adduct formed,"[5]; 5 mM (equimolar for mixture), 30 minutes at 37° C.",40%
same,behavior of mice after injection,"[6]; 200 mg/kg, intravenous",became lethargic and exhibited noticeable changes in behavior
same,convulsion and death,[6]; higher concentrations of 5HMF (300-500 mg/kg),caused mice to convulse and die
same,n50 (hill coefficient),"[7]; Exp A: 1 mM 5HMF, 1 h 37° C.",2.50
same,ΔP50 (%),"[7]; Exp A: 1 mM 5HMF, 1 h 37° C., vs control P50",7.53%
same,P50,"[7]; Exp A: 1 mM 5HMF, Hb 1 mg/ml PBS pH 7.4, 1 h 37° C.",14.00 mmHg
same,P50,"[7]; Exp E: 3 mM 5HMF, 1 h 37° C.",8.21 mmHg
same,n50 (hill coefficient),"[7]; Exp E: 3 mM 5HMF, 1 h 37° C.",1.73
same,ΔP50 (%),"[7]; Exp E: 3 mM 5HMF, 1 h 37° C.",45.78%
same,P50,"[7]; Exp F: 5 mM 5HMF, 1 h 37° C.",5.72 mmHg
same,n50 (hill coefficient),"[7]; Exp F: 5 mM 5HMF, 1 h 37° C.",1.91
same,ΔP50 (%),"[7]; Exp F: 5 mM 5HMF, 1 h 37° C.",62.22%
same,hypoxia-induced formation of sickle cells,[8],largely inhibited
same,5HMF/HbS adduct,[9]; blood taken at 10 min,5.1%
same,5HMF/HbS adduct,[9]; blood taken at 30 min,4.1%
same,percent Hb adduct (5HMF/HbA),[2]; 1 mM,6%
same,survival time of mice exposed to severe hypoxia,[10],prolonged the survival time
same,chemical change by 1HNMR spectra and HPLC chromatogram on storage,[3],"After 3 days, the 5HMF sample has undergone significant chemical changes"
same,color change on storage,[3],becomes yellow after 24 h
same,5HMF/HbS adduct formed,"[4]; 5 mM, whole blood",27%
CC1CCC(C(C)C)C(OC(=O)c2ccccc2N)C1 (stereo not drawn) [Menthyl-o-aminobenzoate],rate at which melanoidin formation occurs on human skin,[1],significantly increase the rate
"Nc1ccccc1C(=O)O [OABA, o-aminobenzoic acid]",rate at which melanoidin formation occurs on human skin,[1],significantly increase the rate
"Nc1ccc(C(=O)O)cc1 [PABA, p-aminobenzoic acid]",amount of 5HMF/HbS adduct formed in the presence of equimolar PABA (in words),"[5]; 2 mM or 5 mM 5HMF with equimolar PABA, FIG. 2",significantly increased
same,adduct formation,[5]; PABA only control (2 mM or 5 mM),did not result in any adduct formation
same,shift of OEC / change in P50 value vs Hb control,"[7]; 100 mM, 10 mM or 1 mM PABA, no 5HMF",did not shift the OEC or cause a change in the P50 value
same,mean fluorescence intensity of T-cells (inversely proportional to Tucaresol/T-cell adduct formation),[11],did not exhibit a change in mean fluorescent intensity
same,new adduct peak by HPLC,[2]; PABA only control,did not show a new peak
same,rate of darkening of solutions,"[12]; 100 mM NH4OAc pH 5.5, 1% PABA sodium salt, vs no PABA",darkened at faster rates
same,change of UV-Vis spectrum,[12]; 1% PABA,changed more rapidly
same,rate at which melanoidin formation occurs on human skin,[1],significantly increase the rate
same,daily doses with no reported side effects,[13],below 12 grams
same,new adduct peak by HPLC,[4]; PABA only negative control,did not show a new peak
"O=Cc1c(O)cccc1OCc1ccc(C(=O)O)cc1 [Tucaresol, 4(2-formyl-3-hydroxy-phenoxymethyl) benzoic acid]",CD4+ counts,[14]; HIV-positive patients,increase in CD4+ counts
same,HIV viraemia,[14]; HIV-positive patients,unaffected
same,Tucaresol-related serious adverse events (patients),[14]; after the first dose,2/21
CCCCOC(=O)c1ccccc1N [butyl anthranilate],rate at which melanoidin formation occurs on human skin,[1],significantly increase the rate
CCOC(=O)c1ccccc1N [ethyl anthranilate],rate at which melanoidin formation occurs on human skin,[1],significantly increase the rate
COC(=O)c1ccccc1N [methyl anthranilate],rate at which melanoidin formation occurs on human skin,[1],significantly increase the rate
